Measured values reported in ChEMBL document CHEMBL5038624, “Construction and activity evaluation of novel dual-target (SE/CYP51) anti-fungal agents containing amide naphthyl structure” (Eur J Med Chem, 2022).
In brackets after ≈: the same amount, converted by molar mass.

Key:
Type in all cases: functional
[1] = test system: Candida tropicalis; test: Antifungal activity against Candida tropicalis ATCC 1369 assessed as reduction in fungal growth incubated for 72 hrs by CLSI protocol based broth microdilution method
[2] = test system: Aspergillus fumigatus; test: Antifungal activity against Aspergillus fumigatus KM8001 assessed as reduction in fungal growth incubated for 72 hrs by CLSI protocol based broth microdilution method
[3] = test system: Pichia kudriavzevii; test: Antifungal activity against Candida krusei ATCC 6258 assessed as reduction in fungal growth incubated for 72 hrs by CLSI protocol based broth microdilution method
[4] = test system: Nakaseomyces glabratus; test: Antifungal activity against Candida glabrata ATCC 0001 assessed as reduction in fungal growth incubated for 72 hrs by CLSI protocol based broth microdilution method
[5] = test system: Candida albicans; test: Antifungal activity against Candida albicans SC5314 assessed as reduction in fungal growth incubated for 72 hrs by CLSI protocol based broth microdilution method

Compound	MIC50 [1]	MIC50 [2]	MIC50 [3]	MIC50 [4]	MIC50 [5]
O=C(/C=C/c1cccc2ccccc12)NC(Cn1cncn1)C(=O)c1ccccc1 (stereo unspecified)	0.125 µg/mL (≈ 0.315 µM)	4 µg/mL (≈ 10.1 µM)	0.5 µg/mL (≈ 1.26 µM)	0.25 µg/mL (≈ 0.631 µM)	0.25 µg/mL (≈ 0.631 µM)
c1ccc2ccccc2c1 [NAPHTHALENE]	–	–	–	–	> 64 µg/mL
O=C(/C=C/c1cccc2ccccc12)NC(C(=O)NCc1cccnc1)c1ccccc1 (stereo unspecified)	0.5 µg/mL (≈ 1.19 µM)	> 8 µg/mL	2 µg/mL (≈ 4.74 µM)	2 µg/mL (≈ 4.74 µM)	4 µg/mL (≈ 9.49 µM)

More lines, in order of falling MIC50 [1], values ahead:

MIC50 [1]	MIC50 [2]	MIC50 [3]	MIC50 [4]	MIC50 [5]	Compound
0.5 µg/mL (≈ 1.35 µM)	4 µg/mL (≈ 10.8 µM)	0.25 µg/mL (≈ 0.677 µM)	1 µg/mL (≈ 2.71 µM)	0.5 µg/mL (≈ 1.35 µM)	O=C(NC(Cn1ccnc1)C(=O)c1ccccc1)c1cccc2ccccc12 (stereo unspecified)
0.5 µg/mL (≈ 1.26 µM)	> 8 µg/mL	1 µg/mL (≈ 2.53 µM)	0.5 µg/mL (≈ 1.26 µM)	0.25 µg/mL (≈ 0.632 µM)	O=C(/C=C/c1cccc2ccccc12)NC(Cn1ccnc1)C(=O)c1ccccc1 (stereo unspecified)
0.25 µg/mL (≈ 0.614 µM)	4 µg/mL (≈ 9.82 µM)	1 µg/mL (≈ 2.45 µM)	0.25 µg/mL (≈ 0.614 µM)	0.5 µg/mL (≈ 1.23 µM)	O=C(/C=C/c1ccc2ccccc2c1)NC(C(=O)Nc1cccnc1)c1ccccc1 (stereo unspecified)
0.125 µg/mL (≈ 0.365 µM)	> 8 µg/mL	0.5 µg/mL (≈ 1.46 µM)	2 µg/mL (≈ 5.84 µM)	0.25 µg/mL (≈ 0.73 µM)	O=C(NC(Cn1cncn1)c1ccccc1)c1cccc2ccccc12 (stereo unspecified)
